Results on three compounds are retold here after patent US12090166B2, “Pharmaceutical composition for preventing or treating dentin-dental pulp disease or periodontal disease, containing LPAR2 inhibitor” (PUSAN NATIONAL UNIVERSITY INDUSTRY-UNIVERSITY COOPERATION …, priority 2018, dated 2024).

Experiment [1] relates to dental papilla mesenchyme. Description: Real-time PCR analysis of in vitro cultured dental papilla mesenchyme. Type of experiment: cell-based, mouse. Conditions: 24 hours, vs control group. The method, then:
(§1) Experimental animals were carried out using mouse ICR-based male 8 week-old mice. After anesthesia is performed by administering intraperitoneally Zoletil (Virbac, Carros, France) and Rompun (Bayer, Berlin, Germany), which are anesthetic inducing agents according to the weight, an experiment was conducted to expose the pulp cavity for the maxillary right first molars. To confirm the change in gene expression, an experiment was conducted on the developing 14th day pregnant embryo. ICR-based female mice whose pregnancy was confirmed were sacrificed in the morning of the 14th day after pregnancy, and then embryos were obtained and the tooth germ of the lower jaw was finely dissected under a stereoscopic microscope, and the tooth germ tissue was placed on the lid of a 35 mm diameter Petri dish for experimentation together with the culture solution and cultured in a 5% carbon dioxide incubator at 37° C. for 24 hours with or without Beck 35 drug administration.
In order to confirm the change in gene expression by Beck 35 drugs, in vitro culture was performed by microdissecting the tooth germ at the 14th day of the embryonic period, and the group treated with the drug for 24 hours was set as the experimental group, and the untreated tissue was set as the control group, and changes in gene expression were confirmed by real-time PCR analysis. […]
For orientation: Real-time PCR tracks product formation cycle by cycle.

Experiment [2] relates to human-derived dental pulp stem cells. Description: Cell viability measurement (MTT method). Type of experiment: cell-based. Conditions: 24 hours; for proliferation of human-derived dental pulp stem cells (cell viability, MTT): expansion medium, vs control. The method, then:
Cell viability measurement was evaluated by the 3-(4,5-dimethylthiazol-2-yl)-2,5-diphenyl-2H-tetrazolium bromide (MTT) method. Human-derived dental pulp stem cells were coated with 0.2% gelatin one day before culture. On the day of incubation, 0.2% gelatin was removed from the 48-well plate and washed once with PBS. In 48-well plates, human-derived dental pulp stem cells (4×10^5 cells/ml) were cultured in Miltenyi Stem MACS MSC Expansion Media Kit XF medium containing 100 μg/ml streptomycin and 100 μg/ml penicillin. Beck 35 was evaluated at various concentrations (0, 0.1, 1 and 1.0 μg/ml) for 24 hours at 37° C. in an atmosphere of 5% CO2 and 95% humidity. Then, the cells were incubated with 0.5 mg/ml MTT (SIGMA, USA) for 3 hours, and the reaction was stopped by adding dimethyl sulfoxide (DMSO, JUNSEL, Japan). Results were obtained at 560 nm using an ELISA reader. The cell viability of the control cells was used as a 100% control value.
In addition, human-derived dental pulp stem cells were cultured in bone differentiation inducing medium (10% fetal bovine serum, […] dexamethasone, 10 mM β-glycerophosphate and 50 mM ascorbic acid) for 24 hours to induce the differentiation and various concentrations (1, 5 and 1.0 μM/ml) of Beck 35 were treated during differentiation.
On the technique in general: Tetrazolium assays rely on reduction of a dye to a coloured formazan, in cell work by metabolically active cells.

For experiment [3] the test system is unchanged. Description: Electron microscope analysis after bone differentiation. Type of experiment: cell-based. The settings on record: bone differentiation medium with vs without Beck 35. The protocol: As in Example 2-2, human-derived dental pulp stem cells were cultured in a culture medium for inducing bone differentiation with or without Beck 35, an inhibitor of LPAR2, to induce bone differentiation, and then observed by an electron microscope.

For another experiment, the system named is tooth germ mesenchyme. Description: Real-time PCR analysis of in vitro cultured tooth germ mesenchyme. In kind it is cell-based, mouse. Conditions: 24 hours, 5 μM, vs control group. The method, then:
as §1
In order to confirm the change in gene expression by Beck 35 drugs, in vitro culture was performed by microdissecting the tooth germ at the 14th day of the embryonic period, and the group treated with the drug for 24 hours was set as the experimental group, and the untreated tissue was set as the control group, and changes in gene expression were confirmed by real-time PCR analysis. After RNA was obtained from the cultured tissue, the first strand cDNA was synthesized and the expression level was confirmed by real-time PCR for genes known to be important for dentin formation until now.

Experiment [4] concerns exposed pulp cavity of mouse molars. As to the kind of experiment: Pulp cavity exposure animal model (H&E, MTC, micro-CT, immunohistochemistry). Type of experiment: in vivo. The method, then:
as §1, with “After” for “Experimental animals were carried out using mouse ICR-based male 8 week-old mice. After”
In order to prepare tissue sections, mice were sacrificed after a certain experimental period in the experimental group and the control group, fixed in 4% paraformaldehyde, washed with phosphate buffer solution, and demineralized in 0.1 M EDTA chelate solution. Demineralization proceeded for 4 weeks, and after demineralization, it was embedded in wax, cut to a thickness of 7 micrometers, and smeared on a glass slide to perform conventional hematoxylin and eosin staining.
MTC staining was performed to confirm the synthesis of collagen protein and formation of mineralized tissue. After staining the nucleus with hematoxylin for the tissue on the glass slide produced through the normal tissue sectioning process and if the entire tissue is stained with a mixed dyeing solution designed to perform cytoplasmic staining with biebrich scarlet and muscle fibers staining with acid fuchsin, all of collagen fibers, muscle fibers and cytoplasm can be observed by staining red.
Microcomputerized tomography was performed to confirm the hard tissue regenerated by the drug. The lower jaw tissue fixed in 4% paraformaldehyde was observed using Skyscan1272 (Bruker, Kontich, Belgium), and 2 micrometers pixels were photographed at 4904×3280 resolution for the entire 360 degree, and the image was reconstructed in 3D with a data viewer and then the degree of hard tissue formation was objectively analyzed by analyzing with the CTAn (Bruker) program.
While observing the oral cavity of anesthetized mice under a stereoscopic microscope, a pulp cavity exposure experiment was performed on the upper right first molar, and the left upper first molar was used as a untreated control. While observing with a stereoscopic microscope, using a round burr having 0.6 mm diameter connected to a high-speed handpiece, the enamel and dentin was exposed to be perpendicular to the occlusal surface, and when necessary, water was sprayed to minimize tissue damage. Afterwards, the Beck 35 drug was mounted on Pluronic F127 and delivered to the exposed pulp cavity. Only Pluronic F127 was delivered to confirm as a control. After the delivery of the Beck 35 drug to the pulp cavity, the doubly exposed pulp cavity was covered with Dycal (Dentsply Caulk, Milford, DE) and a […] composite resin. Thereafter, on the 3rd, 5th and 42nd days, the changes were confirmed by histological and microcomputed tomography techniques.
To confirm the expression of the protein, the expression pattern of NESTIN, a protein specific for odontoblasts, was confirmed by immunohistochemistry using tissue sections from the control and treatment groups. The expression of the protein was confirmed based on the antigen-antibody reaction, and the positive reaction of the protein was confirmed as brown with 3,3′-diaminobenzidine.

Experiment [5] has as its system human-derived dental pulp stem cells. Description: Extracellular matrix calcification by Alizarin Red S staining during bone differentiation. Type of experiment: cell-based. The settings on record: for calcification (Alizarin Red S staining): 0, 1, 5 and 1.0 μM/ml in bone differentiation induction medium. The method, then: Human-derived dental pulp stem cells (4×10^5 cells/ml) were cultured in Miltenyi Stem MACS MSC Expansion Media Kit XF medium containing 100 μg/ml streptomycin and 100 μg/ml penicillin, followed by culturing in bone differentiation induction medium (10% fetal bovine serum, […] dexamethasone, 10 mM β-glycerophosphate, and 50 mM ascorbic acid). Beck 35 (LPAR2 inhibitor) and LPA were added to the bone differentiation induction medium at various concentrations (0, 1, 5 and 1.0 μM/ml). […] In order to quantify the degree of staining, the absorbance was measured at 562 nm after dissolving in 10% (WN) cetylpyridinium chloride and 10 mM sodium phosphate (pH 7.0) solution.
Human-derived dental pulp stem cells (4×10^5 cells/ml) were cultured in Miltenyi Stem MACS MSC Expansion Media Kit XF medium containing 100 μg/ml streptomycin and 100 μg/ml penicillin, and differentiation was induced for 14 days by changing to the bone differentiation induction medium. To the bone differentiation induction medium, RP10-83, an agonist of LPAR2 and H2L5186303, an antagonist of LPAR2 were added at various concentrations (0, 1, and 10 μM/ml). The cells in which bone differentiation was induced were washed twice with PBS, fixed with 70% ethanol at 4° C. for 1 hour, stained with 40 mM Alizarin Red S (pH 4.2, Sigma Co.) solution for 10 minutes, and then washed with distilled water sufficiently. In order to quantify the degree of staining, the absorbance was measured at 562 nm after dissolving in a 10% (WN) cetylpyridinium chloride and 10 mM sodium phosphate (pH 7.0) solution.
Human-derived dental pulp stem cells (4×10^5 cells/ml) were cultured in a growth medium without antibiotics. 50 nM of LPAR2 si-RNA was transfected using jetPRIME (Polyplus Transfection) according to the manufacturers protocol. As a control, non-targeting siRNA (SEQ ID NO: 1: […]) was transfected. The differentiation of the cells was induced for 7 days after changing to bone differentiation induction medium. […]

Experiment [6] shares this test system. Description: Real-time PCR analysis of differentiation genes. Type of experiment: cell-based. Conditions: 1 μM once every 3 days, 7 days in bone differentiation medium. The method, then: As in Example 2-2, human-derived dental pulp stem cells were differentiated for 7 days, 14 days and 21 days in a bone differentiation induction culture medium. Beck 35 was added to the bone differentiation medium at a concentration of 1 μM once every 3 days to differentiate for a week. Those maintained with the human-derived dental pulp stem cells, induced differentiation for 7 days, 14 days and 21 days with bone differentiation medium, and induced differentiation for 7 days in bone differentiation medium containing Beck 35 was used to isolate total RNA with Trisure (Bioline, UK) and reverse transcription to cDNA was performed using HelixCript™ Thermo Reverse Transcriptase (NanoHelix, Korea, Daejeon, Korea). The synthesized cDNA was performed using the primers of Table 1 and Power SYBR Green PCR Master Mix. The data analysis was determined using the delta Ct method.

[7] abbreviates: after 3 and 5 days, vs control group.
The mark [8] stands for this setting: after 42 days, vs control group.

“Also recorded” adds a separate entry of the source.

For `Cc1csc2c(N[C@@H](C)CN3CCN(S(=O)(=O)c4ccc(Cl)c(Cl)c4)CC3)ncnc12` [Beck 35], in experiment [1], the “expression of Bmp6” value is reported as “increased” and the overall gene expression entry is listed as “overall gene expression increased”. Also, in experiment [2] (10 μM/ml), the “proliferation of human-derived dental pulp stem cells (cell viability, MTT)” value was “promoted the proliferation”. For the same compound, the “proliferation of human-derived dental pulp stem cells (cell viability, MTT)” value in experiment [2] (0.1 and 1 μM/ml) is “not different from the control”. In addition, the “proliferation of human dental pulp stem cells during differentiation” value in experiment [2] (1, 5 and 1.0 μM/ml, bone differentiation inducing medium) is “inhibited the proliferation”. For the same compound, the “cell morphology by electron microscope” value in experiment [3] was “relatively long-shaped cells”. Besides, in the experiment with tooth germ mesenchyme, the “expression of Axin2 (Wnt signaling)” value is recorded as “reduced”, the “expression of Bmp2” value was “reduced”, the “expression of Bmp4” value is given as “reduced” and the “expression of Bmp6” value was “reduced”. In the experiment on tooth germ mesenchyme, the “expression of Bmp7” value was “reduced”, the “expression of Lef1 (Wnt signaling)” value was “reduced” and the “expression of beta-Catenin (Wnt signaling)” value is on record as “reduced”. In experiment [4] (3 and 5 days later), the “blood vessel distribution (MTC staining)” value is given as “same blood vessel distribution as the HE staining result”; the “number of cells in which the inflammatory cells and the nucleus were thickly condensed (MTC staining)” value is listed as “small”. The “dentin bridge formation (micro-CT)” value in experiment [4] (42 days after pulp cavity exposure, vs control group) is on record as “dentin bridge was formed; also recorded: perfect dentin bridge was regenerated”. Besides, in experiment [4] (Beck 35 5 μM in exposed pulp cavity, maxillary molar of 8-week-old B6 mice), the “dentin regeneration, morphological” value is given as “perfectly formed dentin bridge”. In experiment [4] (setting [7]), the “NESTIN expression in pulp cavity periphery (immunohistochemistry)” value was “more positive reactions”, the “RUNX2 expression in pulp cavity periphery (immunohistochemistry)” value is recorded as “more positive reactions”, the “blood vessels in pulp cavity (H&E)” value was “more tissues were observed as blood vessels” and the “staining of cell nuclei in the pulp cavity (H&E)” value is “stained lighter than the control group”. Moreover, in experiment [4] (setting [8]), the “formation of calcified dentin bridge (MTC staining)” value is listed as “formation of calcified dentin bridge was confirmed” and the “formation of dentin bridge (H&E)” value was “formation of dentin bridge was clearly observed”. In addition, the “new collagen fibers in pulp cavity (HE and MTC staining)” value in experiment [4] (after treating exposed pulp cavity) was “new collagen fibers seen as pulp cavity internal tissue were confirmed”. The “number of inflammatory cells (H&E)” value in experiment [4] (treatment group vs control group) was “in the control group, the number of inflammatory cells was observed higher than that of the treatment group”. Moreover, the “staining of enamel matrix” value in experiment [4] (vs control group (dispersed and pale dyed)) is on record as “dyed dark red”. For the same compound, in experiment [5], the “calcification (Alizarin Red S staining)” value is recorded as “promoted the calcification in a concentration-dependent manner”. In experiment [6], the “expression level of DMP-1 (dentin matrix protein 1)” value was “Increased”, the “expression level of DSPP (dentin sialophosphoprotein)” value was “Increased”, the “expression level of Runx2 (runt-related transcription factor 2)” value is recorded as “Increased” and the “expression level of osteopontin” value is given as “Increased”.

Turning to `O=C(O)/C=C\C(=O)Nc1ccc(Oc2cccc(Oc3ccc(NC(=O)/C=C\C(=O)O)cc3)c2)cc1` [H2L5186303], in experiment [5] (0, 1, and 10 μM/ml, differentiation induced for 14 days), the “bone differentiation (Alizarin Red S staining)” value is given as “promoted bone differentiation”.

With lysophosphatidic acid [LPA], the “calcification (Alizarin Red S staining)” value in experiment [5] is recorded as “did not undergo the calcification”.
